This is an account of results in paper PMC2633461, “Porcine sclera as a model of human sclera for in vitro transport experiments: histology, SEM, and comparative permeability” (Molecular Vision, 2009).

How the values of series [1] were obtained:
Porcine globes were obtained from pigs (Large White, Landrance, Duroc; 10–11 months) that ranged in weight 145–190 kg and came from a local slaughterhouse. Porcine eyes were either used within 24 h of explantation or frozen at −80 °C until use. After thawing, the adherent muscle tissue was removed from the eye bulb, and the anterior segment of the eye was circumferentially cut behind the limbus. The eye was then cut into two halves, the vitreous was removed, and the anterior sclera was used for permeation experiments after the removal of the underling tissues using a cotton swab. The frozen tissues were used within three months of explantation.
(§1) Permeation experiments were performed in Franz-type diffusion cells with an area of 0.2 cm^2 for human sclera and 0.6 cm^2 for porcine sclera.
(§2) To reduce edge damage, a thin layer of silicone lubricant was applied to the glass surface, and the minimum force necessary to keep the cell sealed was applied.
(§3) The receptor compartment contained 4 ml of 25 mM HEPES buffer (pH 7.4) added with 0.9% NaCl, kept at 37 °C, and magnetically stirred. […] At predetermined time intervals, the receptor solution was sampled for the determination of drug permeated.
(§4) The transscleral flux, i.e., the amount of drug that crosses 1 cm^2 of sclera in 1 h (J, µg/cm^2h) was calculated as the slope of the regression line at the steady-state while the lag time was the intercept of the regression line on the x-axis. The permeability coefficient (P, cm/s) was calculated as J/Cv where Cv represents the concentration of the donor solution.
(§5) Experiments performed with human sclera were replicated three to four times while those performed on porcine sclera were replicated five to seven times. All the experiments were performed using previously frozen tissues, and acetaminophen permeability was tested also through fresh pig sclera.
(§6) Acetaminophen and insulin were analyzed by HPLC with a Perkin-Elmer instrument (Norwalk, CT), which is made of an isocratic pump LC250 an UV detector LC290, and the Perkin Elmer Turbochrom Workstation software.
(§7) Acetaminophen was analyzed using a C18 Novapak® column (150×3.9 mm; Waters, Milford, MA) and a mobile phase composed of 92% (v/v) 10 mM sodium acetate pH 4 and 8% (v/v) acetonitrile, which was pumped at 1 ml/min. The detector was set at 254 nm.
(§8) Insulin was analyzed using a C18 Symmetry300® column (250×4.6 mm; Waters) at 40 °C and a mobile phase composed of 73% (v/v) aqueous phase and 27% (v/v) acetonitrile, which was pumped at 1 ml/min. The aqueous phase contained anhydrous sodium sulfate 28.4 g/l and phosphoric acid 2.7 ml/l and was adjusted at pH 2.3 with ethanolamine. The detector was set at 214 nm.
(§9) The excitation and emission λ were 490 and 520 nm, respectively.

How the values of series [2] were obtained: Human corneal-scleral rims, which were discarded following harvesting of the corneal button (Regional Cornea Bank, Bologna, Italy), were frozen in liquid nitrogen and used within 15 days of explantation.
as §1, §2, §3, §4, §5, §6, §7, §8, §9
The source holds these as a separate data set.

The conditions of series [3]: cited from earlier work.
For series [4] the following is noted: cited from earlier work. The source says: Regardless of the nature of this interaction, we have estimated that the affinity of insulin for the sclera was the same for porcine and human tissues. […] These values (not statistically different between them, p=0.176) indicate a similar behavior of the two tissues toward insulin and also confirm that insulin has an effective affinity for the sclera. In fact, even if the absolute value of the par ...
The source holds these as a separate data set.

Series [5] in a line: Affinity of insulin for scleral tissue: partition coefficient, human sclera / aqueous solution. The series is classed as in vitro ADME. To be noted: insulin about 100 µg/ml in HEPES pH 7.4 with EDTA and lysine, 0.4 ml on 50-100 mg tissue, 3 h, room temperature, HPLC, mean±SEM, n at least 6. How it is done:
(§10) Affinity of insulin for scleral tissue was estimated by measuring its partition coefficient between human or porcine sclera and an aqueous solution at pH 7.4. Insulin was dissolved in the aqueous vehicle that was used as donor for the permeation experiments at a concentration of about 100 µg/ml. This solution (0.4 ml) was added to a previously weighed amount of human or porcine sclera (50–100 mg) in a 2.0 ml vial. The insulin solution and the scleral tissues were incubated at room temperature for 3 h. The solution was then filtered (regenerated cellulose, 0.45 µm pore size) and analyzed by HPLC for the determination of the final insulin concentration in the water phase [Wf]. The insulin concentration [S] in the sclera after the incubation period was calculated as:
(§11) [S]=[Wi] x VW - [Wf] x VW/VS
(§12) where [Wi] is the initial concentration of insulin in the aqueous phase, [Wf] is the concentration of insulin in the aqueous phase after the incubation period, VW is the volume of the aqueous phase (0.4 ml), and VS is the volume of the sclera, which was estimated by its weight and by considering the scleral density to be equal to 1 g/ml.
(§13) The partition coefficient (Ks/w) was then calculated as: […]
(§14) Each experiment was replicated at least six times.

For series [6] the following is noted: no reference given; cited from earlier work. The procedure: The permeability was evaluated using three model compounds. […] Insulin has been chosen as a model protein. It has a molecular weight of 5,734 Da, a molecular radius of the monomeric form of 1.13 nm or 2.0 nm, and an isoelectric point of about 5.4. […] Permeation experiment ...
The nature of series [7]: Affinity of insulin for scleral tissue: partition coefficient, porcine sclera / aqueous solution. Type of series: in vitro ADME, pig. As to conditions: insulin about 100 µg/ml in HEPES pH 7.4 with EDTA and lysine, 0.4 ml on 50-100 mg tissue, 3 h, room temperature, HPLC, mean±SEM, n at least 6. How it is done: as §10, §11, §12, §13, §14
The conditions of series [8]: cited from earlier work. This is another data set of the same source.
The conditions of series [9]: cited from earlier work. This is another data set of the same source.
Setting [10] is: neutral molecules of different lipophilicity, rhodamine 6G electrically charged at the pH of the experiment.

Like-named read-outs stand apart in the source and are kept apart here.

For `CC(=O)Nc1ccc(O)cc1` [Acetaminophen, acetaminophen], the “DK (diffusion coefficient x partition coefficient)” value (from here on “DK”) in series [1] (SEM) is given as 1.95±0.26 cm^2/s x10^−6. For the same compound, in [1] (pH 7.4), the “Effect of freezing on tissue permeability (fresh vs previously frozen porcine sclera)” value is reported as “did not have any effect on tissue permeability” and the “P (permeability coefficient)” value was found to be 15.6±2.1 cm/s x10^−6. Besides, in series [1] (pH 7.4, SEM), the Lag-time was determined as 35 ± 2 min. Also, the “Flux through human sclera relative to pig sclera” value in series [2] is 2 times. In addition, in [2] (SEM), the “DK” value amounted to 2.05±0.18 cm^2/s x10^−6. Besides, in [2] (pH 7.4), the Lag-time entry was “no lag time was detectable”, the “P (permeability coefficient)” value is 34.9±3.0 cm/s x10^−6 and the “Permeability coefficient across human sclera” value was 3.49 [±0.3] x10^-5 cm/s. Besides, the Molecular radius in [3] is 0.36 nm.
Turning to `CCCC1O[C@@H]2C[C@H]3[C@@H]4CCC5=CC(=O)C=C[C@]5(C)[C@H]4[C@@H](O)C[C@]3(C)[C@]2(C(=O)CO)O1` (stereo partly shown) [budesonide], in series [4] (setting [10]), the “Partition coefficient sclera (literature)” value (shortened to “Partition coefficient sclera”) was 1.2.
As for `Cc1ccc(-c2cc(C(F)(F)F)nn2-c2ccc(S(N)(=O)=O)cc2)cc1` [celecoxib], the “Partition coefficient sclera” value in [4] (setting [10]) was 1.4.
On to `OC[C@@H](O)[C@@H](O)[C@H](O)[C@H](O)CO` [mannitol], for which the “Partition coefficient sclera” value in series [4] (setting [10]) is on record as 0.005.
On to `CC/N=c1\cc2oc3cc(NCC)c(C)cc3c(-c3ccccc3C(=O)OCC)c-2cc1C` [rhodamine 6G], for which the “Partition coefficient sclera” value in [4] (setting [10]) is “high affinity”.
With `OC[C@H]1O[C@@](CO)(O[C@H]2O[C@H](CO)[C@@H](O)[C@H](O)[C@H]2O)[C@@H](O)[C@@H]1O` [sucrose], in series [4], the “Partition coefficient sclera” value is 0.6.
Regarding “Insulin from bovine pancreas [listing 1 of 2 here]”, the “Partition coefficient (Ks/w) between sclera and donor solution” value in [5] is recorded as 10.3±1.2; in series [7] it was 7.0±1.1. Also, in series [6], the isoelectric point result was “about 5.4”. Further, the Flux in series [1] (porcine sclera, previously frozen, Franz-type cell 0.6 cm^2, donor 4.9 mg/ml acetaminophen, 1 mg/ml FD-150 or 1 mg/ml insulin in 25 mM HEPES pH 7.4, receptor HEPES pH 7.4 + 0.9% NaCl (0.3% BSA for insulin), 37 °C, slope at steady state, HPLC-UV (FD-150 fluorescence), mean±SEM, n = 5-7, SEM) is reported as 3.74±2.10 µg/cm^2h; in [2] (human sclera, previously frozen, Franz-type cell 0.2 cm^2, donor 4.9 mg/ml acetaminophen, 1 mg/ml FD-150 or 1 mg/ml insulin in 25 mM HEPES pH 7.4, receptor HEPES pH 7.4 + 0.9% NaCl (0.3% BSA for insulin), 37 °C, slope at steady state, HPLC-UV (FD-150 fluorescence), mean±SEM, n = 3-4, SEM) it was 6.93±1.14 µg/cm^2h. For the same compound, the Lag-time worked out at 198 ± 23 min in [1] (porcine sclera, previously frozen, intercept of the regression line on the x-axis, donor pH 7.4, 37 °C, mean±SEM, n = 5-7, SEM) and 71 ± 6 min in [2] (human sclera, previously frozen, intercept of the regression line on the x-axis, donor pH 7.4, 37 °C, mean±SEM, n = 3-4, SEM). The “DK” value in [1] (porcine sclera, from P = DK/H with H = tissue thickness (1.25 mm), mean±SEM, SEM) came out at 0.11±0.05 cm^2/s x10^−6; in series [2] (human sclera, from P = DK/H with H = tissue thickness (0.59 mm), mean±SEM, SEM) it was 0.11±0.02 cm^2/s x10^−6. Further, the “P (permeability coefficient)” value in series [2] (human sclera, previously frozen, Franz-type cell 0.2 cm^2, donor pH 7.4 HEPES, 37 °C, P = J/Cv, mean±SEM, n = 3-4) stood at 1.93±0.32 cm/s x10^−6. In series [2] (ratio human / pig sclera flux), the “Flux through human sclera relative to pig sclera” value worked out at 2 times.
With “Insulin from bovine pancreas [listing 2 of 2 here]”, in series [8], the Molecular radius of the monomeric form was 1.13 nm. Also, the Molecular radius (dimers/hexamers in solution) in series [9] is 2.5 nm.
